Laboratory results published in patent US20120100361A1, “ANTISEPTIC COMPOSITION FOR ENGINEERING WOOD PRODUCTION, AND ENGINEERING WOOD” (SDS BIOTECH K.K., priority 2009, published 2012).

Assays:
fungus cellar soil-bed [1] = experiment: Fungus cellar soil-bed test of preservative LVL (JIS K1571:2004); details: 25° C., grade 0 sound condition to 5 out of shape due to the decay
Protocol: (§1) 1000 g of the phenol resin-based glue Deernol D-117 (manufactured by Oshika Corporation), 70 g of wheat flour and 100 g of calcium carbonate were mixed and well kneaded. A solution of each of the compounds of Example 1 and Comparative Example 1, 2 and 5 to 25 was added to the kneaded product so that the final concentrations of the compound in the wood become 150, 100, 50 and 25 g/m^3 and further kneaded. 18 g of the above kneaded product was applied onto each of the surface of glue line of the three Radiata pine veneer sheets having an area of 30 x 30 cm and thickness of 3 mm. After bonding the three sheets to each other, the sheets were subjected to cold pressing at room temperature for 20 minutes and the thermal pressure of 140° C. (10 kgf/cm^2) was applied to the sheets for two minutes to obtain the target LVL. Each of the prepared LVL was processed into the size of 20×20×9 mm to serve as a test sample.
The preservative LVL was prepared in the same manner in Preparation Example 3. Each of the prepared LVL was processed into the size of 9×9×100 mm to serve as a test sample.
(§2) The samples of the plywood and LVL prepared in Preparation Examples 4 and 5 were evaluated by the fungus cellar soil-bed test according to JIS K1571:2004. The weather resistance operation and the test method for the antiseptic effect were performed according to the above test method. The test was carried out for six months setting the test temperature to 25° C. (because the grade average of the decay damage of the non-treated test samples exceeded 2.5 in six months). […] The effect in the glue line treatment was actually investigated with respect to a number of existing antiseptics, and it was confirmed that only epoxyconazole is suitable for the glue line treatment at a low concentration.

Trametes versicolor [2] = experiment: Test for antiseptic effects of preservative plywood (JIS K1571:2004); type: cell-based; details: plywood, urea melamine resin, Trametes versicolor
Protocol: (§3) 1000 g of urea melamine resin (PWP-60, manufactured by Oshika Corporation) was added to 180 g of wheat flour and fully kneaded to thereby obtain a kneaded product. 8 g of ammonium chloride was added as a hardening agent to the kneaded product, and a solution of each of the compounds of Example 1 and Comparative Example 1, 2 and 5 to 25 was further added thereto so that the final concentrations of the compound in the wood become 150, 100, 50 and 25 g/m^3 and kneaded. 18 g of the above kneaded product was applied onto each of the bonding plane of the three red lauan veneer sheets having an area of 30 x 30 cm and thickness of 0.85 mm/2.4 mm/0.85 mm. After bonding the three sheets to each other, the sheets were subjected to cold pressing at room temperature for 20 minutes and the thermal pressure of 120° C. (10 kgf/cm^2) was applied to the sheets for two minutes to obtain the target plywood. Each of the prepared plywood was processed into the size of 20×20×4.1 mm to serve as a test sample.
(§4) The samples of the plywood and LVL prepared in Preparation Examples 2 and 3 were evaluated by the test for antiseptic effects for the drug pressure treatment according to JIS K1571:2004. The weather resistance operation and the test method for the antiseptic effect were performed according to the above test method.

Fomitopsis palustris [3] = experiment: as above; type: cell-based; details: plywood, urea melamine resin, Fomitopsis palustris
Protocol: as §3, §4

Trametes versicolor [4] = experiment: Test for antiseptic effects of preservative LVL (JIS K1571:2004); type: cell-based; details: phenol resin
Protocol: as §1, §4

Fomitopsis palustris [5] = experiment: as above; type: cell-based; details: phenol resin
Protocol: as §1, §4

fungus cellar soil-bed [6] = experiment: Fungus cellar soil-bed test of preservative plywood (JIS K1571:2004); details: plywood, six months, 25° C., grade 0 sound condition to 5 out of shape due to the decay
Protocol: as §3
The preservative plywood was prepared in the same manner in Preparation Example 2. Each of the prepared plywood was processed into the size of 8.9 x 8.9×100 mm to serve as a test sample.
as §2

[7] = Test for miscibility with a phenol resin glue; type: physicochemical; set-up: key to Phenol resin status after 60 minutes: ∘: No change; x: Obvious increase in the viscosity was seen and it seems impossible to apply the composition onto the veneer sheet; details: 10% (w/w) solution added to phenol resin glue Deernol D-117 kneaded product; viscosity change visually observed for 60 minutes
Protocol: The following compounds, which are known to have wood preservative activity, are dissolved in methyl ethylene triglycol to reach a concentration of 10% (w/w) to thereby obtain a solution of each of the compounds.
1000 g of phenol resin-based glue Deernol D-117 (manufactured by Oshika Corporation), 70 g of wheat flour and 100 g of calcium carbonate were mixed and well kneaded. Each of the solutions of Example 1 and Comparative Example 1 to 25 was added to 17 g of the kneaded product and mixed well together. The viscosity change of the glue was visually observed for 60 minutes. […] Although a number of documents listed as the prior art documents and the like teach that quaternary ammonium compounds can be applied to the glue line treatment, it is clear that those compounds have a problem for practical use (Comparative Examples 3 and 4). On the other hand, it was confirmed that the other compounds including that of Example has no problem from the viewpoint of compatibility.

[8] = treated amount 25 g/m^3, six months
[9] = treated amount 50 g/m^3, six months
[10] = treated amount 100 g/m^3, six months
[11] = treated amount 150 g/m^3, six months

Row | SMILES | Grade average of the decay damage of five test samples (fungus cellar soil-bed [1]; [8]) | Grade average of the decay damage of five test samples (fungus cellar soil-bed [1]; [9]) | Grade average of the decay damage of five test samples (fungus cellar soil-bed [1]; [10]) | Grade average of the decay damage of five test samples (fungus cellar soil-bed [1]; [11]) | average rate of decrease in weight (Trametes versicolor [2]; treated amount 25 g/m^3) | average rate of decrease in weight (Trametes versicolor [2]; treated amount 50 g/m^3) | average rate of decrease in weight (Trametes versicolor [2]; treated amount 100 g/m^3) | average rate of decrease in weight (Trametes versicolor [2]; treated amount 150 g/m^3) | average rate of decrease in weight (Fomitopsis palustris [3]; treated amount 25 g/m^3) | average rate of decrease in weight (Fomitopsis palustris [3]; treated amount 50 g/m^3) | average rate of decrease in weight (Fomitopsis palustris [3]; treated amount 100 g/m^3) | average rate of decrease in weight (Fomitopsis palustris [3]; treated amount 150 g/m^3) | average rate of decrease in weight (Trametes versicolor [4]; treated amount 25 g/m^3) | average rate of decrease in weight (Trametes versicolor [4]; treated amount 50 g/m^3) | average rate of decrease in weight (Trametes versicolor [4]; treated amount 100 g/m^3) | average rate of decrease in weight (Trametes versicolor [4]; treated amount 150 g/m^3) | average rate of decrease in weight (Fomitopsis palustris [5]; treated amount 25 g/m^3) | average rate of decrease in weight (Fomitopsis palustris [5]; treated amount 50 g/m^3) | average rate of decrease in weight (Fomitopsis palustris [5]; treated amount 100 g/m^3) | average rate of decrease in weight (Fomitopsis palustris [5]; treated amount 150 g/m^3) | other results
1 | CO/C=C(/C(=O)OC)c1ccccc1Oc1cc(Oc2ccccc2C#N)ncn1 [Comparative Example 21, azoxystrobin] | 3.0 | 3.6 | 3.4 | 2.8 | X (The average rate of decrease in weight was 3% or more.) | X (The average rate of decrease in weight was 3% or more.) | X (The average rate of decrease in weight was 3% or more.) | X (The average rate of decrease in weight was 3% or more.) | X (The average rate of decrease in weight was 3% or more.) | X (The average rate of decrease in weight was 3% or more.) | X (The average rate of decrease in weight was 3% or more.) | X (The average rate of decrease in weight was 3% or more.) | X (The average rate of decrease in weight was 3% or more.) | X (The average rate of decrease in weight was 3% or more.) | X (The average rate of decrease in weight was 3% or more.) | X (The average rate of decrease in weight was 3% or more.) | X (The average rate of decrease in weight was 3% or more.) | X (The average rate of decrease in weight was 3% or more.) | X (The average rate of decrease in weight was 3% or more.) | X (The average rate of decrease in weight was 3% or more.) | Grade average of the decay damage of five test samples (fungus cellar soil-bed [6]; treated amount 25 g/m^3): 3.0; Grade average of the decay damage of five test samples (fungus cellar soil-bed [6]; treated amount 50 g/m^3): 3.0; Grade average of the decay damage of five test samples (fungus cellar soil-bed [6]; treated amount 100 g/m^3): 3.0; Grade average of the decay damage of five test samples (fungus cellar soil-bed [6]; treated amount 150 g/m^3): 2.8; Phenol resin status after 60 minutes [7]: ∘
2 | CCCCNC(=O)OCC#CI [Comparative Example 23, 3-iode-2-propynyl-n-butylcarbamate] | 3.0 | 3.4 | 3.2 | 2.6 | X (The average rate of decrease in weight was 3% or more.) | X (The average rate of decrease in weight was 3% or more.) | X (The average rate of decrease in weight was 3% or more.) | X (The average rate of decrease in weight was 3% or more.) | X (The average rate of decrease in weight was 3% or more.) | X (The average rate of decrease in weight was 3% or more.) | X (The average rate of decrease in weight was 3% or more.) | X (The average rate of decrease in weight was 3% or more.) | X (The average rate of decrease in weight was 3% or more.) | X (The average rate of decrease in weight was 3% or more.) | X (The average rate of decrease in weight was 3% or more.) | X (The average rate of decrease in weight was 3% or more.) | X (The average rate of decrease in weight was 3% or more.) | X (The average rate of decrease in weight was 3% or more.) | X (The average rate of decrease in weight was 3% or more.) | X (The average rate of decrease in weight was 3% or more.) | Grade average of the decay damage of five test samples (fungus cellar soil-bed [6]; treated amount 25 g/m^3): 2.8; Grade average of the decay damage of five test samples (fungus cellar soil-bed [6]; treated amount 50 g/m^3): 2.8; Grade average of the decay damage of five test samples (fungus cellar soil-bed [6]; treated amount 100 g/m^3): 3.2; Grade average of the decay damage of five test samples (fungus cellar soil-bed [6]; treated amount 150 g/m^3): 2.8; Phenol resin status after 60 minutes [7]: ∘
3 | CCCCCCCCn1sccc1=O [Comparative Example 24, N-octylisothiazolin-3-one] | 3.0 | 3.4 | 3.0 | 3.2 | X (The average rate of decrease in weight was 3% or more.) | X (The average rate of decrease in weight was 3% or more.) | X (The average rate of decrease in weight was 3% or more.) | X (The average rate of decrease in weight was 3% or more.) | X (The average rate of decrease in weight was 3% or more.) | X (The average rate of decrease in weight was 3% or more.) | X (The average rate of decrease in weight was 3% or more.) | X (The average rate of decrease in weight was 3% or more.) | X (The average rate of decrease in weight was 3% or more.) | X (The average rate of decrease in weight was 3% or more.) | X (The average rate of decrease in weight was 3% or more.) | X (The average rate of decrease in weight was 3% or more.) | X (The average rate of decrease in weight was 3% or more.) | X (The average rate of decrease in weight was 3% or more.) | X (The average rate of decrease in weight was 3% or more.) | X (The average rate of decrease in weight was 3% or more.) | Grade average of the decay damage of five test samples (fungus cellar soil-bed [6]; treated amount 25 g/m^3): 2.8; Grade average of the decay damage of five test samples (fungus cellar soil-bed [6]; treated amount 50 g/m^3): 2.8; Grade average of the decay damage of five test samples (fungus cellar soil-bed [6]; treated amount 100 g/m^3): 2.8; Grade average of the decay damage of five test samples (fungus cellar soil-bed [6]; treated amount 150 g/m^3): 2.8; Phenol resin status after 60 minutes [7]: ∘
